Structures can show the parent of a compound that is named as a salt.
Columns and labels:
CDK1/cyclin B1 = molecular target: T1, CDK1/cyclin B1 (Homo sapiens, UniProt P06493); assay: In Vitro CDK1/Cyclin B1 Enzyme Activity Assay (TR-FRET); format: biochemical; settings: in words
T1 construct: purchased Carna Biosciences
Description: Experimental Example 2: In Vitro CDK1/Cyclin B1 Enzyme Activity Assay
CDK1/cyclin B1 was purchased from Carna Biosciences. Ulight-4E-BP1 peptide, Eu-anti-phospho-tyrosine antibody, and 1× detection buffer were purchased from PerkinElmer. High-purity ATP was purchased from Promega. EDTA was purchased from Sigma. Nivo multimode plate reader (PerkinElmer) was used.
Preparation of Kinase Buffer Solution: The kinase buffer solution consisted 50 mM HEPES, 1 mM EDTA, 10 mM MgCl2, and 0.01% Brij-35, with pH of 7.4. 2.38 g HEPES, 58 mg EDTA, 406 mg MgCl2, and 20 mg Brij-35 were added to 200 mL buffer, and the pH was adjusted to 7.4.
The stop solution was prepared by mixing 100 μL of 1 M EDTA stock solution with 0.625 μL of 1× detection buffer solution and 1725 μL of distilled water.
The enzyme, Ulight-4E-BP1 peptide, ATP, and the inhibitor were diluted using the kinase buffer solution.
The Eu-anti-phospho-tyrosine antibody was diluted to a concentration of 8 nM/L using the detection buffer solution.
The test compound was serially diluted 5-fold using a multichannel pipette to the 8th concentration, i.e., from 4 μM to 0.0512 nM. The final concentration of DMSO was 4%, and the experiment was set up with duplicate wells. 2.5 μL of each gradient concentration of the inhibitor, 5 μL of CDK1/cyclin B1 enzyme (0.5 ng), and 2.5 μL of a mixture of substrate and ATP (4 mM ATP, 200 nM Ulight-4E-BP1 peptide) were added to a microplate, resulting in a final concentration gradient of the compound from 1 μM to 0.0128 nM, with final ATP and substrate concentrations of 1 mM and 50 nM, respectively. The reaction system was incubated at 25 °C for 60 minutes. After the reaction, 5 μL of the stop solution was added to each well, and further reacted at 25 °C for 5 minutes to terminate the reaction. Then 5 μL of Eu-anti-phospho-tyrosine antibody dilution was added to each well, and the mixture was incubated at 25 °C for 60 minutes. Data were collected using the PerkinElmer Nivo multimode plate reader in TR-FRET mode (excitation wavelength: 320 nm; emission wavelengths: 615 nm and 665 nm).
The raw data were converted to inhibition rates using the equation (Sample−Min)/(Max−Min)×100%. The IC50 value was obtained by fitting the data to a four-parameter curve (using log(inhibitor) vs. response—Variable slope model in GraphPad Prism). Table 1 provides the enzyme inhibitory activity of the compounds of the present application against CDK1/cyclin B1.

[1] = Pharmacokinetic Study of Test Compounds Administered Orally and Intravenously in Mice; format: in vivo, mouse (ICR, male); settings: ICR mice
Description: Experimental Example 5: Pharmacokinetic Study of Test Compounds Administered Orally and Intravenously in Mice
This study used ICR male mice as test animals. The plasma concentrations of the test compounds and the reference compound in mice were quantitatively determined at different time points using the LC-MS/MS method following intravenous injection or oral administration to evaluate the pharmacokinetic characteristics of the test compounds in mice.
ICR mice (male, 20-30 g, 6-8 weeks old, Beijing Charles River).
A clear solution of the test compound was administered to ICR mice (fasted overnight or fed) via tail vein injection or oral gavage. For intravenous injection, blood samples (50 μL) were collected via cheek puncture at 0 h (pre-dose) and at 0.083, 0.25, 0.5, 1, 2, 4, 6, 8, and 24 h post-dose into anticoagulant tubes containing sodium heparin. The mixtures were thoroughly vortexed at 4 °C and centrifuged at 6000 rpm for 3 minutes. For oral gavage, blood samples were collected via cheek puncture at 0 h (pre-dose) and at 0.083, 0.25, 1, 2, 4, 6, 8, and 24 h post-dose into anticoagulant tubes containing sodium heparin. The mixtures were vortexed thoroughly, and centrifuged at 6000 rpm for 3 minutes. Plasma drug concentrations were determined using the LC-MS/MS method. Pharmacokinetic parameters were calculated using Phoenix WinNonlin 8.2.0 pharmacokinetic software with a non-compartmental model and linear-logarithmic trapezoidal rule.

T1 sequence (P06493 whole entry): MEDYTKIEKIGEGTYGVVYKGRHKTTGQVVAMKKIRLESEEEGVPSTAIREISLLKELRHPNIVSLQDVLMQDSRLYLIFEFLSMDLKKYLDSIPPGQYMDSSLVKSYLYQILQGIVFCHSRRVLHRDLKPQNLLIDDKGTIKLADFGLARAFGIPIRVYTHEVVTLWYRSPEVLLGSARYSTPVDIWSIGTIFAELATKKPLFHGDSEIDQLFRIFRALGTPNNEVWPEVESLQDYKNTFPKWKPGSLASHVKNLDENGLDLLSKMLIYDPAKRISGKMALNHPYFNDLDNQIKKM
T1 sequence (P14635 whole entry partner): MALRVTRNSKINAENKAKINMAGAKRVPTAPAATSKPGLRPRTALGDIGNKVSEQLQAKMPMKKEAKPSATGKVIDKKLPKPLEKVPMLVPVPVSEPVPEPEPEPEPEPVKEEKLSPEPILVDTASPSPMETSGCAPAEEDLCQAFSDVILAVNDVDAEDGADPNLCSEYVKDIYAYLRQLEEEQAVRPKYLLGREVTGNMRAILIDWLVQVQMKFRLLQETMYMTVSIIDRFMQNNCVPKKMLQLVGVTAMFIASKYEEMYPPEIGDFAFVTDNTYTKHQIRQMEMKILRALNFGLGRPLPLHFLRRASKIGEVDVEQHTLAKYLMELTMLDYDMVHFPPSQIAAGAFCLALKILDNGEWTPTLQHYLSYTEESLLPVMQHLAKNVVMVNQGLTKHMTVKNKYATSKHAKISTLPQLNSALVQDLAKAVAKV

CONCc1nn2ccnc(Nc3cc([C@H]4CC[C@@H](OC(=O)NC(C)C)C4)[nH]n3)c2c1F [Compound 5]
selectivity for CDK2 over CDK1 compared to PF-07104091 (CDK1/cyclin B1): superior selectivity compared to PF-07104091

CON(C)Cc1nn2ccnc(Nc3cc([C@H]4CC[C@@H](OC(=O)NC(C)C)C4)[nH]n3)c2c1F [Compound 6]
selectivity for CDK2 over CDK1 compared to PF-07104091 (CDK1/cyclin B1): superior selectivity compared to PF-07104091

CONCc1nn2ccnc(Nc3cc([C@H]4CC[C@@H](OC(=O)NC(C)C)C4)[nH]n3)c2c1C [Formate salt of compound 1]
selectivity for CDK2 over CDK1 compared to PF-07104091 (CDK1/cyclin B1): superior selectivity compared to PF-07104091

CON(C)Cc1nn2ccnc(Nc3cc([C@H]4CC[C@@H](OC(=O)NC(C)C)C4)[nH]n3)c2c1C [Formate salt of compound 2]
selectivity for CDK2 over CDK1 compared to PF-07104091 (CDK1/cyclin B1): superior selectivity compared to PF-07104091

CNOCc1nn2ccnc(Nc3cc([C@H]4CC[C@@H](OC(=O)NC(C)C)C4)[nH]n3)c2c1F [Hydrochloride salt of Compound 7]
selectivity for CDK2 over CDK1 compared to PF-07104091 (CDK1/cyclin B1): superior selectivity compared to PF-07104091

CNOCc1nn2ccnc(Nc3cc([C@H]4CC[C@@H](OC(=O)NC(C)C)C4)[nH]n3)c2c1C [Hydrochloride salt of compound 3]
selectivity for CDK2 over CDK1 compared to PF-07104091 (CDK1/cyclin B1): superior selectivity compared to PF-07104091

COCc1cc(C(=O)Nc2cc([C@H]3CC[C@@H](OC(=O)NC(C)C)C3)[nH]n2)n(C)n1 [PF-07104091]
Apparent volume of distribution Vdss ([1]; intravenous, 5 mg/Kg): 11.8 L/kg
Area under plasma concentration-time curve AUC0-last ([1]; intravenous, 5 mg/Kg): 1645 ng·h/mL
Clearance CL ([1]; intravenous, 5 mg/Kg): 50.3 mL/min/kg
Half-life T1/2 ([1]; intravenous, 5 mg/Kg): 2.68 h
Bioavailability F ([1]; oral 30 mg/Kg vs intravenous 5 mg/Kg): 76.2%
Area under plasma concentration-time curve AUC0-last ([1]; oral, 30 mg/Kg): 7524 ng·h/mL
Peak concentration Cmax ([1]; oral, 30 mg/Kg): 6317 ng/mL
Time to peak Tmax ([1]; oral, 30 mg/Kg): 0.25 h
